In brackets after ≈: the same amount, converted by molar mass.
What was measured:
Type in all cases: functional
[1] = test system: Mycobacterium tuberculosis; assay: Antimycobacterial activity against multidrug-resistant Mycobacterium tuberculosis isolate 83 from Chinese tuberculosis patient measured 24 hrs post dose by microplate alamar blue assay; conditions: isolate 83, 24 h
[2] = test system: Mycobacterium tuberculosis; assay: Antimycobacterial activity against multidrug-resistant Mycobacterium tuberculosis isolate 926 from Chinese tuberculosis patient measured 24 hrs post dose by microplate alamar blue assay; conditions: isolate 926, 24 h
[3] = test system: Mycobacterium tuberculosis; assay: Antimycobacterial activity against multidrug-resistant Mycobacterium tuberculosis isolate 164 from Chinese tuberculosis patient measured 24 hrs post dose by microplate alamar blue assay; conditions: isolate 164, 24 h
[4] = test system: Mycobacterium tuberculosis; assay: Antimycobacterial activity against multidrug-resistant Mycobacterium tuberculosis isolate 431 from Chinese tuberculosis patient measured 24 hrs post dose by microplate alamar blue assay; conditions: isolate 431, 24 h
[5] = test system: Mycobacterium tuberculosis; assay: Antimycobacterial activity against multidrug-resistant Mycobacterium tuberculosis isolate 44 from Chinese tuberculosis patient measured 24 hrs post dose by microplate alamar blue assay; conditions: isolate 44, 24 h

Row | SMILES | MIC [1] [µg/mL] | MIC [2] [µg/mL] | MIC [3] [µg/mL] | MIC [4] [µg/mL] | MIC [5] [µg/mL]
1 | CCCCCCCCc1c2[n+](cc3c(OCC)c(OC)ccc13)CCc1cc(OCC)c(OCC)cc1-2.[Cl-] | 0.5 | 0.125 | 0.125 | 0.5 | 0.25
2 | CO[C@H]1/C=C/O[C@@]2(C)Oc3c(C)c(O)c4c(O)c(c(/C=N/N5CCN(C)CC5)c(O)c4c3C2=O)NC(=O)/C(C)=C\C=C\[C@H](C)[C@H](O)[C@@H](C)[C@@H](O)[C@@H](C)[C@H](OC(C)=O)[C@@H]1C [RIFAMPIN] | > 64 | > 32 | > 64 | > 64 | 64 (≈ 77.8 µM)
3 | CCCCCCCCc1c2[n+](cc3c(OCc4ccccc4)c(OC)ccc13)CCc1cc(OCc3ccccc3)c(O)cc1-2.[Cl-] | 1 | 0.5 | 1 | 0.25 | 0.5
4 | NNC(=O)c1ccncc1 [ISONIAZID] | 4 (≈ 29.2 µM) | 32 (≈ 233 µM) | 4 (≈ 29.2 µM) | 64 (≈ 467 µM) | 4 (≈ 29.2 µM)
5 | CCCCCCCCc1c2[n+](cc3c(OC)c(OC)ccc13)CCc1cc3c(cc1-2)OCO3.[Cl-] | 4 | – | 4 | 4 | 4
6 | CCCCCCCCc1c2[n+](cc3c(OC)c(OC)ccc13)CCc1cc(OCC)c(OCC)cc1-2.[Cl-] | 4 | 4 | 4 | – | 4
